Reference: patent US8586617B2, “Aminomethyl-4-imidazoles” (Hoffmann-La Roche Inc., priority 2006, dated 2013)

Biological target: TAAR1 (Mus musculus (Mouse), UniProt Q923Y8)
Experiment: TAAR1 radioligand binding assay ([3H]-rac-2-(1,2,3,4-tetrahydro-1-naphthyl)-2-imidazoline, membranes of stably transfected HEK293 cells)
Conditions: read-out: Ki (μM) mouse; mouse TAAR1; radioligand [3H]-rac-2-(1,2,3,4-tetrahydro-1-naphthyl)-2-imidazoline at 60 nM; 4° C., 30 minutes
Procedure: The ability of the compounds of the present invention to bind to TAAR1 was investigated in accordance with the test given hereinafter.
For the generation of stably transfected cell lines HEK293 cells were transfected with the pIRESneo2 expression plasmids containing the TAAR coding sequences (described above) with Lipofectamine 2000 (Invitrogen) according to the instructions of the manufacturer, and 24 hours post transfection the culture medium was supplemented with 1 mg/ml G418 (Sigma, Buchs, Switzerland). After a culture period of about 10 days, clones were isolated, expanded and tested for responsiveness to trace amines (all compounds purchased from Sigma) with the cAMP Biotrak Enzyme immunoassay (EIA) System (Amersham) following the non-acetylation EIA procedure provided by the manufacturer.
Cells at confluence were rinsed with ice-cold phosphate buffered saline without Ca^2+ and Mg^2+ containing 10 mM EDTA and pelleted by centrifugation at 1000 rpm for 5 min at 4° C. The pellet was then washed twice with ice-cold phosphate buffered saline and cell pellet was frozen immediately by immersion in liquid nitrogen and stored until use at −80° C. The cell pellet was then suspended in 20 ml HEPES-NaOH (20 mM), pH 7.4 containing 10 mM EDTA, and homogenized with a Polytron (PT 3000, Kinematica) at 10,000 rpm for 10 seconds. The homogenate was centrifuged at 48,000×g for 30 minutes at 4° C. and the pellet resuspended in 20 ml HEPES-NaOH (20 mM), pH 7.4 containing 0.1 mM EDTA (buffer A), and homogenized with a Polytron at 10,000 rpm for 10 seconds. The homogenate was then centrifuged at 48,000×g for 30 minutes at 4° C. and the pellet resuspended in 20 ml buffer A, and homogenized with a Polytron at 10,000 rpm for 10 seconds. […] The homogenate was then centrifuged at 48,000×g for 10 minutes at 4° C., resuspended in HEPES-NaOH (20 mM), pH 7.0 including MgCl2 (10 mM) and CaCl2 (2 ml) (buffer B) at 200 μg protein per ml and homogenized with a Polytron at 10,000 rpm for 10 seconds.
Binding assay was performed at 4° C. in a final volume of 1 ml, and with an incubation time of 30 minutes. […] Non-specific binding was defined as the amount of [^3H]-rac-2-(1,2,3,4-tetrahydro-1-naphthyl)-2-imidazoline bound in the presence of the appropriate unlabelled ligand (10 μM). Competing ligands were tested in a wide range of concentrations (10 pM-30 μM). […] Each experiment was performed in duplicate. All incubations were terminated by rapid filtration through UniFilter-96 plates (Packard Instrument Company) and glass filter GF/C, pre-soaked for at least 2 h in polyethylenimine 0.3%, and using a Filtermate 96 Cell Harvester (Packard Instrument Company). The tubes and filters were then washed 3 times with 1 ml aliquots of cold buffer B. Filters were not dried and soaked in Ultima gold (45 D/well, Packard Instrument Company) and bound radioactivity was counted by a TopCount Microplate Scintillation Counter (Packard Instrument Company).

Sequence of TAAR1 (Q923Y8 whole entry): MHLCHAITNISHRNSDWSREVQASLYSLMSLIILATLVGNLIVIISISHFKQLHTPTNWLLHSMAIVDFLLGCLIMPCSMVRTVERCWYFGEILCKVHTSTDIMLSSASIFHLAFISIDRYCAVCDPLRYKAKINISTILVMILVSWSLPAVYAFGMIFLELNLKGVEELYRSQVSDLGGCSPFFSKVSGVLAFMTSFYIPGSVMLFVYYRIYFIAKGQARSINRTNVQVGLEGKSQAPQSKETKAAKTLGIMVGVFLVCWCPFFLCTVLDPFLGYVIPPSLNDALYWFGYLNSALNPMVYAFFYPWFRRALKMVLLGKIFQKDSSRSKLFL

Compound | Ki
CC(C)N(Cc1cnc[nH]1)c1cccc(OCc2ccccc2)c1 [Example 114, (3-Benzyloxy-phenyl)-(3H-imidazol-4-ylmethyl)-isopropyl-amine] | 0.0041 µM
Fc1ccc(NCc2cnc[nH]2)cc1Br [Example 183, (3-Bromo-4-fluoro-phenyl)-(3H-imidazol-4-ylmethyl)-amine] | 0.0051 µM
CN(Cc1cnc[nH]1)c1cccc(OCc2ccccc2)c1 [Example 190, (3-Benzyloxy-phenyl)-(3H-imidazol-4-ylmethyl)-methyl-amine] | 0.0014 µM
CC(C)N(Cc1cnc[nH]1)c1ccc(OC(F)(F)F)cc1 [Example 67, (3H-Imidazol-4-ylmethyl)-isopropyl-(4-trifluoromethoxy-phenyl)-amine] | 0.0067 µM
CC(C)N(Cc1cnc[nH]1)c1cc(F)cc(F)c1 [Example 101, (3,5-Difluoro-phenyl)-(3H-imidazol-4-ylmethyl)-isopropyl-amine] | 0.003 µM
Clc1ccc(CN(Cc2cnc[nH]2)c2cccc(Cl)c2)cc1 [Example 20, (4-Chloro-benzyl)-(3-chloro-phenyl)-(1H-imidazol-4-ylmethyl)-amine] | 0.0059 µM

Further compounds by falling Ki, results first:

Ki | Compound
0.003 µM | CCN(Cc1cnc[nH]1)c1ccc(F)c(Br)c1 [Example 309, (3-Bromo-4-fluoro-phenyl)-ethyl-(1H-imidazol-4-ylmethyl)-amine]
0.002 µM | CCN(Cc1cnc[nH]1)c1cc(F)cc(F)c1 [Example 306, (3,5-Difluoro-phenyl)-ethyl-(1H-imidazol-4-ylmethyl)-amine]
0.0014 µM | CCN(Cc1cnc[nH]1)c1ccc(Cl)cc1 [Example 57, (4-Chloro-phenyl)-ethyl-(3H-imidazol-4-ylmethyl)-amine]
0.001 µM | CC(C)N(Cc1cnc[nH]1)c1ccc(Br)c(Br)c1 [Example 297, (3,4-Dibromo-phenyl)-(1H-imidazol-4-ylmethyl)-isopropyl-amine]
